What follows are compounds tested on genotype A, "Long" strain RSV (assay: RSV-A assay (CPE protection in Hep-2 cells, ATPlite readout)). Settings: human respiratory syncytial virus, genotype A “Long” strain RSV, MOI 0.1, CPE protection, read-out: Human RSV-A (“Long”).
Format: cell-based, Human respiratory syncytial virus (HRSV)
Source text: Hep-2 cells, (originally derived from tumors grown in irradiated-cortisonised weanling rats that had been injected with epidermoid carcinoma tissue from the larynx of a person, but later found to be indistinguishable from HeLa cells by PCR DNA analysis), were used for the culturing of genotype A, “Long” strain RSV. Flasks were inoculated with RSV and viral stocks were collected once cytopathic effect (CPE) was greater than 90%. Viral stocks in 25% sucrose media were snap frozen using liquid nitrogen to increase viral stability. Viral stock titers were quantified by tissue culture infectious dose 50% (TCID50) using 8,000 cells per well and 3-fold viral dilutions across a 96-well plate, cultured for 4 days. Viral stock titers were also quantified by a plaque forming unit assay, as described elsewhere.
Following extensive parameter testing, the final assay is run as follows: Hep-2 cells are seeded into the inner 60 wells of a 96-well plate at 8,000 cells per well in a volume of 50 μL using Growth Media (DMEM without phenol red, 1% L-Glut, 1% Penn/Strep, 1% nonessential amino acids, 10% heat-inactivated FBS). 2-fold serial dilutions of control and test compounds are added to the wells in duplicate in a total volume of 25 μL. Viral stock is then added to the wells at a multiplicity of infection (MOI) of 0.1 in a volume of 25 μL, bringing the total volume of each well to 100 μL. The MOI is calculated using the PFU/mL, or TCID50 if unavailable. Each 96-well plate has a control column of 6 wells with cells and virus but no compound (negative control, max CPE), a column with cells but no compound or virus (positive control, minimum CPE), and a column with no cells or virus or compound (background plate/reagent control). The control wells with cells but no virus are given an additional 25 μL of growth media containing an equal quantity of sucrose as those wells receiving the viral stock in order to keep consistent in media and volume conditions. The outer wells of the plate are filled with 125 μL of moat media (DMEM, 1% Penn/Strep) to act as a thermal and evaporative moat around the test wells. Following a 5-day incubation period, the plates are read using ATPlite (50 uL added per well), which quantifies the amount of ATP (a measure of cell health) present in each well. Assay plates are read using the Envision luminometer. […] EC50 ranges are as follows: A<0.2 μM; B>0.2 μM.
In the case of Cc1cnc2c(NC(=O)OC3CC3)cc(C(=O)NC[C@](O)(c3cc4c(c(-c5ccc(F)cc5)n3)OC[C@]4(C)C(N)=O)C(F)(F)F)cc2c1 [Example 216], the EC50 is reported as under 200 nM. COc1cc(C(=O)NC[C@](O)(c2cc3c(c(-c4ccc(F)cc4)n2)OC[C@]3(C)C(N)=O)C(F)(F)F)cc2c1NC(=O)C2 [Example 225] was tested, and the EC50 was under 200 nM. Cc1cnc2c(NC(=O)NC34CC(O)(C3)C4)cc(C(=O)NC[C@](O)(c3cc4c(c(-c5ccc(F)cc5)n3)OC[C@]4(C)C(N)=O)C(F)(F)F)cc2c1 [Example 227] gave an EC50 of under 200 nM. With COc1cc(C(=O)NC[C@](O)(c2cc3c(c(-c4ccc(F)c(Cl)c4)n2)OC[C@]3(C)C(N)=O)C(F)(F)F)cc2cc(Cl)c(C)nc12 [Example 228] the EC50 was under 200 nM. With COc1cnc2ccc(C(=O)NC[C@](O)(c3cc4c(c(-c5ccc(F)cc5)n3)OC[C@]4(C)C(N)=O)C(F)(F)F)cc2c1 [Example 229] the EC50 was under 200 nM. For COc1cc(C(=O)NC[C@](O)(c2cc3c(c(-c4ccc(F)cc4)n2)OC[C@]3(C)C(N)=O)C(F)(F)F)cc2cn(C3(C)CC3)nc12 [Example 232], the EC50 was under 200 nM. For COc1cc(C(=O)NC[C@](O)(c2cc3c(c(-c4ccc(F)cc4)n2)OC[C@]3(CCl)C(N)=O)C(F)(F)F)cc2cc(C)c(C)nc12 [Example 233, (S)-3-(chloromethyl)-7-(4-fluorophenyl)-5-((S)-1,1,1-trifluoro-2-hydroxy-3-(8-methoxy-2,3-dimethylquinoline-6-carboxamido)propan-2-yl)-2,3-dihydrofuro[2,3-c]pyridine-3-carboxamide], the EC50 was under 200 nM. Compound CC[C@]1(C(N)=O)COc2c1cc([C@@](O)(CNC(=O)c1cc(OC)c3nc(C4CC4)cn3c1)C(F)(F)F)nc2-c1ccc(F)cc1 [Example 236] has an EC50 of under 200 nM. Work on CC[C@]1(C(N)=O)COc2c1cc([C@@](O)(CNC(=O)c1cc(OC)c3ncccc3c1)C(F)(F)F)nc2-c1ccc(F)cc1 [Example 237] yielded an EC50 of under 200 nM. CC[C@]1(C(N)=O)COc2c1cc([C@@](O)(CNC(=O)c1cc(OC)c3nc(C)c(Cl)cc3c1)C(F)(F)F)nc2-c1ccc(F)cc1 [Example 238] showed an EC50 of over 200 nM. For CC[C@]1(C(N)=O)COc2c1cc([C@@](O)(CNC(=O)c1cc(OC)c3ncc(C(F)(F)F)cc3c1)C(F)(F)F)nc2-c1ccc(F)cc1 [Example 239], the EC50 was under 200 nM. CC[C@]1(C(N)=O)COc2c1cc([C@@](O)(CNC(=O)c1ccc(OC3CC3)c(OC)c1)C(F)(F)F)nc2-c1ccc(F)cc1 [Example 241] was tested, and the EC50 was under 200 nM. CC[C@]1(C(N)=O)COc2c1cc([C@@](O)(CNC(=O)c1ccc(OC[C@@H](C)O)c(OC3CC3)c1)C(F)(F)F)nc2-c1ccc(F)cc1 [Example 242] gave an EC50 of under 200 nM. Compound CC[C@@]1(C(N)=O)COc2c1cc([C@@](O)(CNC(=O)c1cc(OC)c3nn(C(F)F)cc3c1)C(F)(F)F)nc2-c1ccc(F)cc1 [Example 243] has an EC50 of over 200 nM. CC[C@@]1(C(N)=O)COc2c1cc([C@@](O)(CNC(=O)c1cc(OC3CC3)c3ncccc3c1)C(F)(F)F)nc2-c1ccc(F)cc1 [Example 244] was tested, and the EC50 was over 200 nM. For CC[C@@]1(C(N)=O)COc2c1cc([C@@](O)(CNC(=O)c1cc(OC)c3nc(C4CC4)cn3c1)C(F)(F)F)nc2-c1ccc(F)cc1 [Example 245], the EC50 was under 200 nM. CC[C@@]1(C(N)=O)COc2c1cc([C@@](O)(CNC(=O)c1cc(OC)c3ncccc3c1)C(F)(F)F)nc2-c1ccc(F)cc1 [Example 246] showed an EC50 of over 200 nM. For CC[C@@]1(C(N)=O)COc2c1cc([C@@](O)(CNC(=O)c1cc(OC)c3nc(C)c(Cl)cc3c1)C(F)(F)F)nc2-c1ccc(F)cc1 [Example 247], the EC50 was over 200 nM. In the case of CC[C@@]1(C(N)=O)COc2c1cc([C@@](O)(CNC(=O)c1cc(OC)c3ncc(C(F)(F)F)cc3c1)C(F)(F)F)nc2-c1ccc(F)cc1 [Example 248], the EC50 is reported as over 200 nM. CC[C@@]1(C(N)=O)COc2c1cc([C@@](O)(CNC(=O)c1ccc(OC3CC3)c(OC)c1)C(F)(F)F)nc2-c1ccc(F)cc1 [Example 250] showed an EC50 of over 200 nM. With CC[C@@]1(C(N)=O)COc2c1cc([C@@](O)(CNC(=O)c1ccc(OC[C@@H](C)O)c(OC3CC3)c1)C(F)(F)F)nc2-c1ccc(F)cc1 [Example 251] the EC50 was over 200 nM. With COc1cc(C(=O)NC[C@](O)(c2cc3c(c(-c4ccc(F)cc4)n2)OCC3(C(N)=O)C(F)F)C(F)(F)F)cc2c1=NC(C1CC1)N=2 (stereo partly shown) [Example 253] the EC50 was under 200 nM. COc1cc(C(=O)NC[C@](O)(c2cc3c(c(-c4ccc(F)cc4)n2)OCC3(C(N)=O)C(F)F)C(F)(F)F)cc2cccnc12 (stereo partly shown) [Example 254] showed an EC50 of under 200 nM. Work on COc1cc(C(=O)NC[C@](O)(c2cc3c(c(-c4ccc(F)cc4)n2)OCC3(C(N)=O)C(F)F)C(F)(F)F)cc2cn(C(F)F)nc12 (stereo partly shown) [Example 255] yielded an EC50 of under 200 nM. Work on COc1cc(C(=O)NC[C@](O)(c2cc3c(c(-c4ccc(F)cc4)n2)OCC3(C(N)=O)C(F)F)C(F)(F)F)cc2cc(Cl)c(C)nc12 (stereo partly shown) [Example 256] yielded an EC50 of under 200 nM. Work on COc1cc(C(=O)NC[C@](O)(c2cc3c(c(-c4ccc(F)cc4)n2)OCC3(C(N)=O)C(F)F)C(F)(F)F)cc2cc(C(F)(F)F)cnc12 (stereo partly shown) [Example 257] yielded an EC50 of under 200 nM. Compound NC(=O)C1(C(F)F)COc2c1cc([C@@](O)(CNC(=O)c1cc(F)c3nc(N)sc3c1)C(F)(F)F)nc2-c1ccc(F)cc1 (stereo partly shown) [Example 258] has an EC50 of under 200 nM. Compound COc1cc(C(=O)NC[C@](O)(c2cc3c(c(-c4ccc(F)cc4)n2)OCC3(C(N)=O)C(F)F)C(F)(F)F)cn2cc(C3CC3)nc12 (stereo partly shown) [Example 259] has an EC50 of under 200 nM. COc1cc(C(=O)NC[C@](O)(c2cc3c(c(-c4ccc(F)cc4)n2)OCC3(C(N)=O)C(F)F)C(F)(F)F)ccc1OC1CC1 (stereo partly shown) [Example 261] was tested, and the EC50 was under 200 nM. NC(=O)[C@]1(C2CC2)COc2c1cc([C@@](O)(CNC(=O)c1cc(F)c3nc(N)sc3c1)C(F)(F)F)nc2-c1ccc(F)cc1 [Example 262] gave an EC50 of over 200 nM. Compound COc1cc(C(=O)NC[C@](O)(c2cc3c(c(-c4ccc(F)cc4)n2)OC[C@]3(C(N)=O)C2CC2)C(F)(F)F)cc2cc(C(F)(F)F)cnc12 [Example 264] has an EC50 of over 200 nM. Compound COc1cc(C(=O)NC[C@](O)(c2cc3c(c(-c4ccc(F)cc4)n2)OC[C@]3(C(N)=O)C2CC2)C(F)(F)F)cc2cn(C(F)F)nc12 [Example 266] has an EC50 of over 200 nM. For COc1cc(C(=O)NC[C@](O)(c2cc3c(c(-c4ccc(F)cc4)n2)OC[C@]3(C(N)=O)C2CC2)C(F)(F)F)cc2cccnc12 [Example 269], the EC50 was over 200 nM. In the case of NC(=O)[C@]1(C2CC2)COc2c1cc([C@@](O)(CNC(=O)c1cc(OC3CC3)c3ncccc3c1)C(F)(F)F)nc2-c1ccc(F)cc1 [Example 271], the EC50 is reported as over 200 nM. COc1cc(C(=O)NC[C@](O)(c2cc3c(c(-c4ccc(F)cc4)n2)OC[C@@]3(C(N)=O)C2CC2)C(F)(F)F)cn2cc(C3CC3)nc12 [Example 272] was tested, and the EC50 was under 200 nM. With COc1cc(C(=O)NC[C@](O)(c2cc3c(c(-c4ccc(F)cc4)n2)OC[C@]3(C(N)=O)C2CC2)C(F)(F)F)cn2cc(C3CC3)nc12 [Example 273] the EC50 was over 200 nM. COc1cc(C(=O)NC[C@](O)(c2cc3c(c(-c4ccc(F)cc4)n2)OC[C@@]3(C(N)=O)C2CC2)C(F)(F)F)cc2cc(Cl)c(C)nc12 [Example 274] was tested, and the EC50 was under 200 nM. COc1cc(C(=O)NC[C@](O)(c2cc3c(c(-c4ccc(F)cc4)n2)OC[C@]3(C(N)=O)C2CC2)C(F)(F)F)cc2cc(Cl)c(C)nc12 [Example 275] showed an EC50 of under 200 nM. For COc1cc(C(=O)NC[C@](O)(c2cc3c(c(-c4ccc(F)cc4)n2)OC[C@@]3(C(N)=O)C2CC2)C(F)(F)F)ccc1OC1CC1 [Example 276], the EC50 was under 200 nM. With COc1cc(C(=O)NC[C@](O)(c2cc3c(c(-c4ccc(F)cc4)n2)OC[C@]3(C(N)=O)C2CC2)C(F)(F)F)ccc1OC1CC1 [Example 277] the EC50 was over 200 nM. With C[C@@H](O)COc1ccc(C(=O)NC[C@](O)(c2cc3c(c(-c4ccc(F)cc4)n2)OC[C@@]3(C(N)=O)C2CC2)C(F)(F)F)cc1OC1CC1 [Example 278] the EC50 was under 200 nM. C[C@@H](O)COc1ccc(C(=O)NC[C@](O)(c2cc3c(c(-c4ccc(F)cc4)n2)OC[C@]3(C(N)=O)C2CC2)C(F)(F)F)cc1OC1CC1 [Example 279] gave an EC50 of over 200 nM. COc1cc(C(=O)NC[C@](O)(c2cc3c(c(-c4ccc(F)cc4)n2)OC[C@]3(C(N)=O)C2CC2)C(F)(F)F)cc2cn(C3CC3)nc12 [Example 281] was tested, and the EC50 was over 200 nM. For COc1cc(C(=O)NC[C@](O)(c2cc3c(c(-c4ccc(F)cc4)n2)OC[C@@]3(CF)C(N)=O)C(F)(F)F)cc2cccnc12 [Example 282], the EC50 was over 200 nM. In the case of COc1cc(C(=O)NC[C@](O)(c2cc3c(c(-c4ccc(F)cc4)n2)OC[C@]3(CF)C(N)=O)C(F)(F)F)cc2cccnc12 [Example 283], the EC50 is reported as under 200 nM. COc1cc(C(=O)NC[C@](O)(c2cc3c(c(-c4ccc(F)cc4)n2)OC[C@@]3(CF)C(N)=O)C(F)(F)F)cc2cc(Cl)c(C)nc12 [Example 284] was tested, and the EC50 was under 200 nM.

— US12612412B2, “Antiviral heterocyclic compounds” (Enanta Pharmaceuticals, Inc., priority 2021, dated 2026)
